Measurements reported in patent US20240018133A1, “MODULATORS OF THE INTEGRATED STRESS PATHWAY” (Calico Life Sciences LLC, priority 2019, published 2024).

These molecules were tested on ATF4 luciferase reporter (human full-length ATF4 5'-UTR fused to firefly luciferase) in HEK293T cells (assay: ATF4-Luc assay (in vitro model of VWMD): HEK293T cells carrying ATF4 luciferase reporter, tunicamycin-treated). Conditions: 1 μg/mL tunicamycin, 7 hours, One Glo luminescence.
Format: cell-based
In short: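 Stable HEK293T line with human ATF4 5′-UTR–firefly luciferase reporter treated with 1 μg/mL tunicamycin plus 200 nM compound for 7 h. Luminescence read; EC50 derived.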

**Q.** Which EC50 does the source give for `O=C(COc1ccc(Cl)c(F)c1)NC12CC(NC(=O)C3CNc4cc(Cl)ccc4O3)(C1)C2` (single isomer, unassigned) [Compound 103] here?
**A.** The EC50 was under 10 nM.

Same assay, conditions: Homo sapiens, HEK-293T, 1 μg/mL tunicamycin, 7 hours, One Glo luminescence

**Q.** `O=C(COc1ccc(Cl)c(F)c1)NC12CC(NC(=O)[C@@H]3C[C@H](O)c4ccccc4O3)(C1)C2` [Compound 270, (2S,4S)—N-{3-[2-(4-chloro-3-fluorophenoxy)acetamido]bicyclo[1.1.1]pentan-1-yl}-4-hydroxy-3,4-dihydro-2H-1-benzopyran-2-carboxamide] was tested. Which EC50 did it give?
**A.** Its EC50 is 50 to 250 nM.

**Q.** How did the EC50 turn out when `O=C(COc1ccc(Cl)c(F)c1)NC12CC(NC(=O)[C@H]3C[C@H](NC4(CO)CC4)c4cc(Cl)ccc4O3)(C1)C2` (racemic) [Compound 343, rac-(2R,4S)-6-chloro-N-{3-[2-(4-chloro-3-fluorophenoxy)acetamido]bicyclo[1.1.1]pentan-1-yl}-4-{[1-(hydroxymethyl)cyclopropyl]amino}-3,4-dihydro-2H-1-benzopyran-2-carboxamide] was run?
**A.** The EC50 was 10 to 50 nM.

**Q.** With `O=C(COc1ccc(Cl)c(F)c1)N[C@H]1C[C@H]2C[C@@H]1C[C@@H]2NC(=O)[C@H]1CC(=O)c2cc(Cl)ccc2O1` (mixture of isomers) [Compound 368, (2R)-6-chloro-N-{(1RS,2SR,4RS,5SR)-5-[2-(4-chloro-3-fluorophenoxy)acetamido]bicyclo[2.2.1]heptan-2-yl}-4-oxo-3,4-dihydro-2H-1-benzopyran-2-carboxamide] as the molecule, how does the EC50 read?
**A.** Its EC50 is under 10 nM.

**Q.** How did the EC50 turn out when `O=C(COc1ccc(F)c(F)c1)NC12CC(NC(=O)[C@@H]3C[C@H](O)c4cc(F)c(F)cc4O3)(C1)C2` [Compound 273, (2S,4S)—N-{3-[2-(3,4-difluorophenoxy)acetamido]bicyclo[1.1.1]pentan-1-yl}-6,7-difluoro-4-hydroxy-3,4-dihydro-2H-1-benzopyran-2-carboxamide] was run?
**A.** Its EC50 is 10 to 50 nM.

**Q.** For `O=C(NC12CCC(NC(=O)[C@@H]3CC(=O)c4cc(Cl)ccc4O3)(CC1)CC2)c1ccc(OC(F)(F)F)cn1` [Compound 358, N-(4-{[(2S)-6-chloro-4-oxo-3,4-dihydro-2H-1-benzopyran-2-carbonyl]amino}bicyclo[2.2.2]octan-1-yl)-5-(trifluoromethoxy)pyridine-2-carboxamide], which EC50 is on record?
**A.** The EC50 was over 2000 nM.

**Q.** For `O=C(COc1ccc(Cl)c(F)c1)NC12CC(NC(=O)C3CC(NCCO)c4cc(Cl)ccc4O3)(C1)C2` (stereo not shown) [Compound 188, 6-chloro-N-{3-[2-(4-chloro-3-fluorophenoxy)acetamido]bicyclo[1.1.1]pentan-1-yl}-4-[(2-hydroxyethyl)amino]-3,4-dihydro-2H-1-benzopyran-2-carboxamide], which EC50 is on record?
**A.** Its EC50 is 10 to 50 nM.

**Q.** `O=C(COc1ccc(Cl)c(F)c1)NC12CC(NC(=O)c3cc(=O)c4cc(F)c(Cl)cc4o3)(C1)C2` [Compound 232, 7-chloro-N-{3-[2-(4-chloro-3-fluorophenoxy)acetamido]bicyclo[1.1.1]pentan-1-yl}-6-fluoro-4-oxo-4H-1-benzopyran-2-carboxamide] was tested. Which EC50 did it give?
**A.** The EC50 was under 10 nM.

**Q.** For `O=C(COc1ccc(Cl)cn1)NC12CC(NC(=O)[C@H]3C[C@@H](O)c4cc(Cl)ccc4O3)(C1)C2` [Compound 233, (2R,4R)-6-chloro-N-(3-{2-[(5-chloropyridin-2-yl)oxy]acetamido}bicyclo[1.1.1]pentan-1-yl)-4-hydroxy-3,4-dihydro-2H-1-benzopyran-2-carboxamide], which EC50 is on record?
**A.** The EC50 was 10 to 50 nM.

**Q.** How did the EC50 turn out when `C[C@]1(C(=O)NC23CC(NC(=O)COc4ccc(Cl)c(F)c4)(C2)C3)Cc2cc(Cl)ccc2O1` [Compound 258, (2R)-5-chloro-N-{3-[2-(4-chloro-3-fluorophenoxy)acetamido]bicyclo[1.1.1]pentan-1-yl}-2-methyl-2,3-dihydro-1-benzofuran-2-carboxamide] was run?
**A.** The EC50 was over 2000 nM.

**Q.** Which EC50 does the source give for `COc1ncc(OCC(=O)NC23CC(NC(=O)[C@H]4CC(=O)c5cc(Cl)ccc5O4)(C2)C3)cn1` [Compound 333, (2R)-6-chloro-N-(3-{2-[(2-methoxypyrimidin-5-yl)oxy]acetamido}bicyclo[1.1.1]pentan-1-yl)-4-oxo-3,4-dihydro-2H-1-benzopyran-2-carboxamide] here?
**A.** The EC50 was 250 to 500 nM.

**Q.** Which EC50 does the source give for `O=C(COc1ccc(Cl)c(F)c1)NC12CCC(NC(=O)C3CC(=O)c4cc(Cl)ccc4O3)(CC1)CC2` (stereo not shown) [Compound 326, 6-chloro-N-{4-[2-(4-chloro-3-fluorophenoxy)acetamido]bicyclo[2.2.2]octan-1-yl}-4-oxo-3,4-dihydro-2H-1-benzopyran-2-carboxamide] here?
**A.** Its EC50 is 10 to 50 nM.

**Q.** For `CS(=O)(=O)N[C@@H]1C[C@@H](C(=O)NC23CC(NC(=O)COc4ccc(Cl)c(F)c4)(C2)C3)Oc2ccc(Cl)cc21` [Compound 245, (2S,4R)-6-chloro-N-{3-[2-(4-chloro-3-fluorophenoxy)acetamido]bicyclo[1.1.1]pentan-1-yl}-4-[(methanesulfonyl)amino]-3,4-dihydro-2H-1-benzopyran-2-carboxamide], which EC50 is on record?
**A.** The EC50 was under 10 nM.

**Q.** `COC(C)(C)CN1C[C@@H](C(=O)NC23CC(NC(=O)COc4ccc(Cl)c(F)c4)(C2)C3)Oc2ccc(Cl)cc21` [Compound 191, (2S)-6-chloro-N-{3-[2-(4-chloro-3-fluorophenoxy)acetamido]bicyclo[1.1.1]pentan-1-yl}-4-(2-methoxy-2-methylpropyl)-3,4-dihydro-2H-1,4-benzoxazine-2-carboxamide] was tested. Which EC50 did it give?
**A.** Its EC50 is 500 to 2000 nM.

**Q.** How did the EC50 turn out when `O=C(COc1cnc(C(F)(F)F)nc1)NC12CC(NC(=O)[C@H]3CC(=O)c4cc(Cl)ccc4O3)(C1)C2` [Compound 329, (2R)-6-chloro-4-oxo-N-[3-(2-{[2-(trifluoromethyl)pyrimidin-5-yl]oxy}acetamido)bicyclo[1.1.1]pentan-1-yl]-3,4-dihydro-2H-1-benzopyran-2-carboxamide] was run?
**A.** The EC50 was 50 to 250 nM.

**Q.** How did the EC50 turn out when `O=C(NC12CC(NC(=O)[C@H]3C[C@@H](O)c4cc(Cl)ccc4O3)(C1)C2)c1ccc(Cl)c(F)c1` [Compound 378, (2R,4R)-6-chloro-N-[3-(4-chloro-3-fluorobenzamido)bicyclo[1.1.1]pentan-1-yl]-4-hydroxy-3,4-dihydro-2H-1-benzopyran-2-carboxamide] was run?
**A.** The EC50 was 50 to 250 nM.

**Q.** For `Cc1cc2oc(C(=O)NC34CC(NC(=O)COc5ccc(Cl)c(F)c5)(C3)C4)cc(=O)c2cc1C` [Compound 285, N-{3-[2-(4-chloro-3-fluorophenoxy)acetamido]bicyclo[1.1.1]pentan-1-yl}-6,7-dimethyl-4-oxo-4H-1-benzopyran-2-carboxamide], which EC50 is on record?
**A.** The EC50 was under 10 nM.

**Q.** For `O=C(COc1ccc(C(F)(F)F)nc1)NC12CC(NC(=O)[C@@H]3CC(=O)c4cc(Cl)ccc4O3)(C1)C2` [Compound 335, (2S)-6-chloro-4-oxo-N-[3-(2-{[6-(trifluoromethyl)pyridin-3-yl]oxy}acetamido)bicyclo[1.1.1]pentan-1-yl]-3,4-dihydro-2H-1-benzopyran-2-carboxamide], which EC50 is on record?
**A.** The EC50 was 50 to 250 nM.

**Q.** For `O=C(COc1cc(F)c2cn[nH]c2c1)NC12CCC(NC(=O)[C@H]3C[C@@H](O)c4cc(Cl)ccc4O3)(CC1)[C@@H](O)C2` [Compound 355, (2R,4R)-6-chloro-N-[(2S)-4-{2-[(4-fluoro-1H-indazol-6-yl)oxy]acetamido}-2-hydroxybicyclo[2.2.2]octan-1-yl]-4-hydroxy-3,4-dihydro-2H-1-benzopyran-2-carboxamide], which EC50 is on record?
**A.** Its EC50 is under 10 nM.

**Q.** How did the EC50 turn out when `O=C(COc1ccc(Cl)c(F)c1)NC12CC(NC(=O)[C@H]3C[C@@H](O)c4cc(Cl)c(F)cc4O3)(C1)C2` (racemic) [Compound 234, rac-(2R,4R)-6-chloro-N-{3-[2-(4-chloro-3-fluorophenoxy)acetamido]bicyclo[1.1.1]pentan-1-yl}-7-fluoro-4-hydroxy-3,4-dihydro-2H-1-benzopyran-2-carboxamide] was run?
**A.** The EC50 was under 10 nM.

**Q.** Which EC50 does the source give for `Cc1ncc(C(=O)NC23CC(NC(=O)[C@H]4C[C@@H](O)c5cc(Cl)ccc5O4)(C2)C3)s1` [Compound 385, N-(3-{[(2R,4R)-6-chloro-4-hydroxy-3,4-dihydro-2H-1-benzopyran-2-carbonyl]amino}bicyclo[1.1.1]pentan-1-yl)-2-methyl-1,3-thiazole-5-carboxamide] here?
**A.** The EC50 was 50 to 250 nM.

**Q.** With `O=C(COc1ccc(Cl)c(F)c1)N[C@@H]1C[C@@H]2O[C@H]1C[C@H]2NC(=O)[C@@H]1C[C@H](O)c2cc(Cl)ccc2O1` (racemic) [Compound 372, (2S,4S)-6-chloro-N-{(1RS,2SR,4RS,5SR)-5-[2-(4-chloro-3-fluorophenoxy)acetamido]-7-oxabicyclo[2.2.1]heptan-2-yl}-4-hydroxy-3,4-dihydro-2H-1-benzopyran-2-carboxamide] as the molecule, how does the EC50 read?
**A.** Its EC50 is 10 to 50 nM.

**Q.** With `O=C(COc1ccc(Cl)c(F)c1)NC12CC(NC(=O)[C@@H]3C[C@H](O)c4cc(Cl)c(F)cc4O3)(C1)C2` (single isomer, unassigned) [Compound 265] as the molecule, how does the EC50 read?
**A.** The EC50 was under 10 nM.

**Q.** With `Cc1cc2c(cc1F)[C@@H](O)C[C@@H](C(=O)NC13CC(NC(=O)COc4ccc(Cl)c(F)c4)(C1)C3)O2` [Compound 242, (2S,4S)—N-{3-[2-(4-chloro-3-fluorophenoxy)acetamido]bicyclo[1.1.1]pentan-1-yl}-6-fluoro-4-hydroxy-7-methyl-3,4-dihydro-2H-1-benzopyran-2-carboxamide] as the molecule, how does the EC50 read?
**A.** The EC50 was under 10 nM.

**Q.** How did the EC50 turn out when `O=C(COc1ccc(Cl)c(Cl)c1)NC12CC(NC(=O)[C@H]3C[C@@H](O)c4cc(F)c(F)cc4O3)(C1)C2` [Compound 207, (2R,4R)—N-{3-[2-(3,4-dichlorophenoxy)acetamido]bicyclo[1.1.1]pentan-1-yl}-6,7-difluoro-4-hydroxy-3,4-dihydro-2H-1-benzopyran-2-carboxamide] was run?
**A.** Its EC50 is under 10 nM.

**Q.** Which EC50 does the source give for `Cc1cnc(C(=O)NC23CC(NC(=O)[C@H]4C[C@@H](O)c5cc(Cl)ccc5O4)(C2)C3)cn1` [Compound 382, N-(3-{[(2R,4R)-6-chloro-4-hydroxy-3,4-dihydro-2H-1-benzopyran-2-carbonyl]amino}bicyclo[1.1.1]pentan-1-yl)-5-methylpyrazine-2-carboxamide] here?
**A.** Its EC50 is 50 to 250 nM.

**Q.** For `O=C(COc1ccc(Cl)c(F)c1)NC12CC(NC(=O)C3CNc4cc(Cl)ccc4O3)(C1)C2` (single isomer, unassigned) [Compound 102], which EC50 is on record?
**A.** The EC50 was under 10 nM.

**Q.** `Cc1csc(C(=O)NC23CCC(NC(=O)[C@H]4C[C@@H](O)c5cc(Cl)ccc5O4)(CC2)C[C@@H]3O)n1` [Compound 356, N-[(2S)-4-{[(2R,4R)-6-chloro-4-hydroxy-3,4-dihydro-2H-1-benzopyran-2-carbonyl]amino}-2-hydroxybicyclo[2.2.2]octan-1-yl]-4-methyl-1,3-thiazole-2-carboxamide] was tested. Which EC50 did it give?
**A.** The EC50 was 50 to 250 nM.
